US20120270929A1, “MODULATION OF TTC39 EXPRESSION TO INCREASE HDL” (ISIS Pharmaceuticals, Inc., priority 2009, published 2012)
Oligonucleotides are written 5' to 3', each unit as a sugar letter and its base; * is a phosphorothioate linkage, no mark a phosphodiester; rarer units and linkages stand in square brackets, end groups in braces. Plain capitals give the bases only. e = 2'-O-(2-methoxyethyl) (MOE); [5mC] = 5-methylcytosine; d = 2'-deoxy (DNA)

Test system: murine TTC39B mRNA
Test: Antisense inhibition of murine TTC39B in mouse primary hepatocytes, single dose
Type: cell-based
Conditions: 100 nM, cytofectin, ~24 h, vs untreated control
Experimental: Antisense oligonucleotides targeted to a TTC39B nucleic acid were tested for their effects on TTC39B mRNA in vitro. Cultured mouse primary hepatocytes at a density of 10,000 cells per well were transfected using cytofectin reagent with 100 nM antisense oligonucleotide. After a treatment period of approximately 24 hours, RNA was isolated from the cells and TTC39B mRNA levels were measured by quantitative real-time PCR. TTC39B mRNA levels were adjusted according to total RNA content, as measured by RIBOGREEN®. Results are presented as percent inhibition of TTC39B, relative to untreated control cells.
The chimeric antisense oligonucleotides in Tables 1 and 2 were designed as 5-10-5 MOE gapmers. The gapmers are 20 nucleotides in length, wherein the central gap segment is comprised of 10 2′-deoxynucleotides and is flanked on both sides (in the 5′ and 3′ directions) by wings comprising 5 nucleotides each. Each nucleotide in the 5′ wing segment and each nucleotide in the 3′ wing segment has a 2′-MOE modification. The internucleoside linkages throughout each gapmer are phosphorothioate (P═S) linkages. All cytosine residues throughout each gapmer are 5-methylcytosines. “Target start site” indicates the 5′-most nucleotide to which the gapmer is targeted. “Target stop site” indicates the 3′-most nucleotide to which the gapmer is targeted. Each gapmer listed in Table 1 is targeted to SEQ ID NO: 6 (GENBANK Accession No. NM_027238.2) and each gapmer listed in Table 2 is targeted to SEQ ID NO: 10 (the complement of GENBANK Accession No. NT—039260.7 truncated at nucleotides 22491001 to 22601000), SEQ ID NO: 11 (GENBANK Accession No. BY244623.1), SEQ ID NO: 12 (GENBANK Accession No. BY260936), SEQ ID NO: 13 (GENBANK Accession No. BM935568.1) or SEQ ID NO: 14 (GENBANK Accession No. BY728780.1).

[1] = gapmers targeted to SEQ ID NO: 10-14
[2] = gapmers targeted to SEQ ID NO: 6

| Sequence | % inhibition of murine TTC39B mRNA [1] | % inhibition of murine TTC39B mRNA [2] |
| --- | --- | --- |
| GAATTATTTATTCTCACACC (antisense eG*eA*eA*eT*eT*dA*dT*dT*dT*dA*dT*dT*d[5mC]*dT*d[5mC]*eA*e[5mC]*eA*e[5mC]*e[5mC]) [ISIS 447167] | 56% | – |
| GAGTACATTCAAATACAGGA (antisense eG*eA*eG*eT*eA*d[5mC]*dA*dT*dT*d[5mC]*dA*dA*dA*dT*dA*e[5mC]*eA*eG*eG*eA) [ISIS 447139] | – | 58% |
| TATGGAGAAGCAGATGGCCT (eT*eA*eT*eG*eG*dA*dG*dA*dA*dG*d[5mC]*dA*dG*dA*dT*eG*eG*e[5mC]*e[5mC]*eT; antisense) [ISIS 447175] | 56% | – |
| TTTGGCAGGTTTGTAAAGCG (antisense eT*eT*eT*eG*eG*d[5mC]*dA*dG*dG*dT*dT*dT*dG*dT*dA*eA*eA*eG*e[5mC]*eG) [ISIS 447107] | – | 61% |
| TTATACAAAAATGCCAACTC (antisense eT*eT*eA*eT*eA*d[5mC]*dA*dA*dA*dA*dA*dT*dG*d[5mC]*d[5mC]*eA*eA*e[5mC]*eT*e[5mC]) [ISIS 447129] | – | 34% |
| GCAGCTTTCAAGAACACATA (antisense eG*e[5mC]*eA*eG*e[5mC]*dT*dT*dT*d[5mC]*dA*dA*dG*dA*dA*d[5mC]*eA*e[5mC]*eA*eT*eA) [ISIS 447123] | – | 47% |
| GGTGCCCGGACCAGCCCGCT (antisense eG*eG*eT*eG*e[5mC]*d[5mC]*d[5mC]*dG*dG*dA*d[5mC]*d[5mC]*dA*dG*d[5mC]*e[5mC]*e[5mC]*eG*e[5mC]*eT) [ISIS 447158] | 39% | – |
| TACAGACCATGAGCTTTGAT (antisense eT*eA*e[5mC]*eA*eG*dA*d[5mC]*d[5mC]*dA*dT*dG*dA*dG*d[5mC]*dT*eT*eT*eG*eA*eT) [ISIS 447145] | – | 61% |
| GCAGCCATGGCCCTGGGTCA (antisense eG*e[5mC]*eA*eG*e[5mC]*d[5mC]*dA*dT*dG*dG*d[5mC]*d[5mC]*d[5mC]*dT*dG*eG*eG*eT*e[5mC]*eA) [ISIS 447141] | – | 40% |
| TCCGGTGCGCACCCAGTACC (antisense eT*e[5mC]*e[5mC]*eG*eG*dT*dG*d[5mC]*dG*d[5mC]*dA*d[5mC]*d[5mC]*d[5mC]*dA*eG*eT*eA*e[5mC]*e[5mC]) [ISIS 447155] | 23% | – |
| CCCCGTTCCAAGCTTGACTC (antisense e[5mC]*e[5mC]*e[5mC]*e[5mC]*eG*dT*dT*d[5mC]*d[5mC]*dA*dA*dG*d[5mC]*dT*dT*eG*eA*e[5mC]*eT*e[5mC]) [ISIS 447112] | – | 62% |
| TCCACTCGGCTGCCCACGAG (antisense eT*e[5mC]*e[5mC]*eA*e[5mC]*dT*d[5mC]*dG*dG*d[5mC]*dT*dG*d[5mC]*d[5mC]*d[5mC]*eA*e[5mC]*eG*eA*eG) [ISIS 447100] | – | 62% |
| GCCAGCCAGGGCAGGCACTC (antisense eG*e[5mC]*e[5mC]*eA*eG*d[5mC]*d[5mC]*dA*dG*dG*dG*d[5mC]*dA*dG*dG*e[5mC]*eA*e[5mC]*eT*e[5mC]) [ISIS 447163] | 50% | – |
| ACAGTATCTTGAACATGACA (antisense eA*e[5mC]*eA*eG*eT*dA*dT*d[5mC]*dT*dT*dG*dA*dA*d[5mC]*dA*eT*eG*eA*e[5mC]*eA) [ISIS 447147] | – | 46% |
| TCCACCTTGGCTGATGAACC (antisense eT*e[5mC]*e[5mC]*eA*e[5mC]*d[5mC]*dT*dT*dG*dG*d[5mC]*dT*dG*dA*dT*eG*eA*eA*e[5mC]*e[5mC]) [ISIS 447104] | – | 48% |
| TTCTTACAAACATCCTAAGA (antisense eT*eT*e[5mC]*eT*eT*dA*d[5mC]*dA*dA*dA*d[5mC]*dA*dT*d[5mC]*d[5mC]*eT*eA*eA*eG*eA) [ISIS 447148] | – | 54% |
